Experimental data: patent publication US5164295A, “Method for identifying amyloid protein-extracellular matrix protein affinity altering compounds” (The Upjohn Company, priority 1991, dated 1992)
Several values for one entry are separate records, joined by “and”; a condition that tells them apart may be missing. Equal values may be shown once. Read-outs that look alike come from different tables or passages of the source.

Experiments:
AAP695 /s = test: ELISA: binding of free HSPG (intact or core protein) to immobilized AAP695 /s
Procedure: (§1) To study the interaction between HSPG and either AAP770 /s, AAP751 /s, AAP695 /s or fibronectin, the AAP proteins and fibronectin were individually immobilized on polystyrene wells and incubated with increasing concentrations of purified HSPG. Fibronectin was used as a test protein because of its known affinity for HSPG. […] To address this concern, the purified protein core of HSPG in place of the intact proteoglycan was utilized to examine the role of the protein component.
(§2) The assay used in studying the interaction between HSPG and protein ligands was an ELISA technique. Briefly, polystyrene micro-titer plates (Linbro, Flow Lab Inc.) were coated with a 100 μl solution, containing 1 μg/ml of the protein of interest (one of the three forms of AAP or fibronectin) in 20 mM NaHCO3 buffer pH 9.6. After incubation overnight at 4° C., the plates were rinsed with 0.15M NaCl, 20 mM Tris-Cl pH 7.5 (TBS). The plates were then incubated with 150 μl of 1% BSA in TBS for 2 hours at 37° C. to block the residual hydrophobic surface on the wells. After rinsing with TBS containing 0.05% (w/v) Tween 20 (TBS-Tween), 100 μl of various concentrations of HSPG in TBS-Tween were added. The plates were left overnight at 4° C., to permit maximum binding of HSPG to the coated proteins. The plates were then washed extensively and incubated for 2 hours at 37° C., with 100 μl of anti-HSPG diluted in TBS-Tween containing 0.1% BSA. […] Finally, after further washing, the bound antibodies were detected by adding an alkaline phosphatase substrate solution (100 μl) containing 2 mg/ml p-nitrophenyl phosphate, 0.1 mM ZnCl2, 1 mM MgCl2 and 100 mM glycine pH 10. […] The absorbance of the released p-nitrophenol was measured at 405 nm with a Titertek Multiscan/MCC 340 (Flow Lab. Ltd.). The amounts of HSPG bound were determined by the net OD405 after substracting the OD from the blank wells in which the HSPG incubation step was omitted. When the actual amounts of HSPG bound were to be calculated, a set of standards (0.05-50 ng/well) of HSPG in NaHCO3 buffer were pre-coated into wells on the same plates as the test proteins. […] The actual amounts of HSPG bound to the test proteins were calculated from the OD405 standard curve produced by the HSPG standards using a Titersoft II E.J.A. software program (Flow Lab. Ltd.). […]
To determine the Kd of the protein-HSPG complex, the binding data were analyzed assuming a thermodynamic equilibrium for the formation of the complex, B, from the ligand in solution, HSPG, and the uncomplexed protein adsorbed to the microtiter well, R, according to the equation: [formula] Due to the nature of the experimental design, nonspecific binding could not be measured directly. […]

AAP751 /s = test: ELISA: binding of free HSPG (intact or core protein) to immobilized AAP751 /s; conditions: for Kd: absence of test compounds, mean ± SD, read-out: Kd of HSPG (intact or core protein) complex with AAP751 /s
Procedure: as §1
as §2, with “added.” for “added. The plates were left overnight at 4° C., to permit maximum binding of HSPG to the coated proteins. The plates were then washed extensively and incubated for 2 hours at 37° C., with 100 μl of anti-HSPG diluted in TBS-Tween containing 0.1% BSA.”

AAP770 /s = test: ELISA: binding of free HSPG to immobilized AAP770 /s; conditions: absence of test compounds, mean ± SD, read-out: Kd of HSPG complex with AAP770 /s
Procedure: as §1
(§3) The assay used in studying the interaction between HSPG and protein ligands was an ELISA technique. […] Finally, after further washing, the bound antibodies were detected by adding an alkaline phosphatase substrate solution (100 μl) containing 2 mg/ml p-nitrophenyl phosphate, 0.1 mM ZnCl2, 1 mM MgCl2 and 100 mM glycine pH 10. […] The absorbance of the released p-nitrophenol was measured at 405 nm with a Titertek Multiscan/MCC 340 (Flow Lab. Ltd.). The amounts of HSPG bound were determined by the net OD405 after substracting the OD from the blank wells in which the HSPG incubation step was omitted. When the actual amounts of HSPG bound were to be calculated, a set of standards (0.05-50 ng/well) of HSPG in NaHCO3 buffer were pre-coated into wells on the same plates as the test proteins. […]

fibronectin = test: ELISA: binding of free HSPG (intact or core protein) to immobilized fibronectin; set-up: species or system bovine; conditions: absence of test compounds; mean ± SD; read-out: Kd of HSPG (intact or core protein) complex with fibronectin
Source text: Fibronectin (from bovine plasma), heparin (grade II from porcine intestinal mucosa, average molecular weight=[…]), heparan sulfate, chondroitin sulfate, dextran sulfate, BSA, and alkaline phosphatase substrate were obtained from Sigma, St. Louis, Mo. Alkaline phosphatase conjugated goat anti-rabbit IgG was obtained from Boehringer-Manneheim, and heparitinase from ICN Biochemicals.
To study the interaction between HSPG and either AAP770 /s, AAP751 /s, AAP695 /s or fibronectin, the AAP proteins and fibronectin were individually immobilized on polystyrene wells and incubated with increasing concentrations of purified HSPG. Fibronectin was used as a test protein because of its known affinity for HSPG. […]
as §3, with “omitted.” for “omitted. When the actual amounts of HSPG bound were to be calculated, a set of standards (0.05-50 ng/well) of HSPG in NaHCO3 buffer were pre-coated into wells on the same plates as the test proteins.”

BSA = test: ELISA control: binding of HSPG to BSA coated wells; set-up: species or system bovine
Procedure: The assay used in studying the interaction between HSPG and protein ligands was an ELISA technique. Briefly, polystyrene micro-titer plates (Linbro, Flow Lab Inc.) were coated with a 100 μl solution, containing 1 μg/ml of the protein of interest (one of the three forms of AAP or fibronectin) in 20 mM NaHCO3 buffer pH 9.6. After incubation overnight at 4° C., the plates were rinsed with 0.15M NaCl, 20 mM Tris-Cl pH 7.5 (TBS). The plates were then incubated with 150 μl of 1% BSA in TBS for 2 hours at 37° C. to block the residual hydrophobic surface on the wells. After rinsing with TBS containing 0.05% (w/v) Tween 20 (TBS-Tween), 100 μl of various concentrations of HSPG in TBS-Tween were added. […] Finally, after further washing, the bound antibodies were detected by adding an alkaline phosphatase substrate solution (100 μl) containing 2 mg/ml p-nitrophenyl phosphate, 0.1 mM ZnCl2, 1 mM MgCl2 and 100 mM glycine pH 10. […] The absorbance of the released p-nitrophenol was measured at 405 nm with a Titertek Multiscan/MCC 340 (Flow Lab. Ltd.). The amounts of HSPG bound were determined by the net OD405 after substracting the OD from the blank wells in which the HSPG incubation step was omitted. When the actual amounts of HSPG bound were to be calculated, a set of standards (0.05-50 ng/well) of HSPG in NaHCO3 buffer were pre-coated into wells on the same plates as the test proteins. […]

For “heparan sulfate proteoglycan [Intact HSPG]”, the Kd (AAP695 /s; absence of test compounds, mean ± SD, listed as HSPG, read-out: Kd of HSPG (intact or core protein) complex with AAP695 /s) was 0.88 nM and ~0.9 nM, the Kd (AAP695 /s; absence of test compounds, mean ± SD, listed as intact HSPG, read-out: Kd of HSPG (intact or core protein) complex with AAP695 /s) was 0.9 ± 0.25 nM and the Kd (AAP695 /s; absence of test compounds, mean ± SD, read-out: Kd of HSPG (intact or core protein) complex with AAP695 /s) was 0.88 ± 0.35 nM. For the same substance, the Kd (AAP695 /s; heparin 400 μg/ml, read-out: Kd of HSPG (intact or core protein) complex with AAP695 /s in presence of heparin) was 3.56 ± 1.78 nM, the Kd (AAP751 /s; listed as HSPG) was 10.2 nM and 9 to 10 nM and the Kd (AAP751 /s) was 10.2 ± 2.45 nM. The “Bmax, total binding capacity” value (AAP751 /s; typical experiment using AAP751 /s) was 15.9±0.2 ng HSPG, the Kd (AAP770 /s; listed as HSPG) was 9.13 nM and 9 to 10 nM and the Kd (AAP770 /s) was 9.13 ± 1.06 nM. The Kd (fibronectin) was 0.98 nM and the “binding of HSPG to BSA in comparison to the tested proteins” value (BSA) was “negligible”.
